Experiments:
[1] = molecular target: T1, full-length purified human estrogen receptor ERα (Homo sapiens, UniProt P03372); assay: ERα competitive radiometric binding assay; settings: for RBA ERα (relative binding affinity): RBA = IC50[estradiol]/IC50[compound] × 100, estradiol = 100, 2 nM [3H]-estradiol tracer, 18–24 h at 0 °C
T1 construct: full-length purified human estrogen receptors ERα and ERβ
T1 sequence (P03372 1-595): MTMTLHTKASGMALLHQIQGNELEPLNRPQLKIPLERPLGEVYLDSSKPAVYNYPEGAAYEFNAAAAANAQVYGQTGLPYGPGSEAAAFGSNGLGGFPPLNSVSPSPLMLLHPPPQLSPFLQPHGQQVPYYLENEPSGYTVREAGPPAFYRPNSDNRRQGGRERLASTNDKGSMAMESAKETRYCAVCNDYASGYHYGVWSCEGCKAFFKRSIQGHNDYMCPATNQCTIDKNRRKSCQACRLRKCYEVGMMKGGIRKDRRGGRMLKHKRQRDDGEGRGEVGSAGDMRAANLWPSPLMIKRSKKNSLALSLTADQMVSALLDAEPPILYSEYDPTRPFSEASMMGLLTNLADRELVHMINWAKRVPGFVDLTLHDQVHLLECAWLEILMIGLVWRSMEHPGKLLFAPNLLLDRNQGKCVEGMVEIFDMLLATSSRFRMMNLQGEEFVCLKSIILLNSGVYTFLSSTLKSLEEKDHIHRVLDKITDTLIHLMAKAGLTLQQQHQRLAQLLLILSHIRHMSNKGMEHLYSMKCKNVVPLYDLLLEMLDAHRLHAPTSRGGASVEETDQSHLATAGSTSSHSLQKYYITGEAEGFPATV
Protocol: The receptors and ligands were incubated for 18–24 h at 0 °C and then the receptor–ligand complexes separated using hydroxyapatite (BioRad, Hercules, CA, USA).

[2] = molecular target: T2, full-length purified human estrogen receptor ERβ (Homo sapiens, UniProt Q92731); assay: ERβ competitive radiometric binding assay; settings: for RBA ERβ (relative binding affinity): RBA = IC50[estradiol]/IC50[compound] × 100, estradiol = 100, 2 nM [3H]-estradiol tracer, 18–24 h at 0 °C
T2 construct: full-length purified human estrogen receptors ERα and ERβ
T2 sequence (Q92731 whole entry): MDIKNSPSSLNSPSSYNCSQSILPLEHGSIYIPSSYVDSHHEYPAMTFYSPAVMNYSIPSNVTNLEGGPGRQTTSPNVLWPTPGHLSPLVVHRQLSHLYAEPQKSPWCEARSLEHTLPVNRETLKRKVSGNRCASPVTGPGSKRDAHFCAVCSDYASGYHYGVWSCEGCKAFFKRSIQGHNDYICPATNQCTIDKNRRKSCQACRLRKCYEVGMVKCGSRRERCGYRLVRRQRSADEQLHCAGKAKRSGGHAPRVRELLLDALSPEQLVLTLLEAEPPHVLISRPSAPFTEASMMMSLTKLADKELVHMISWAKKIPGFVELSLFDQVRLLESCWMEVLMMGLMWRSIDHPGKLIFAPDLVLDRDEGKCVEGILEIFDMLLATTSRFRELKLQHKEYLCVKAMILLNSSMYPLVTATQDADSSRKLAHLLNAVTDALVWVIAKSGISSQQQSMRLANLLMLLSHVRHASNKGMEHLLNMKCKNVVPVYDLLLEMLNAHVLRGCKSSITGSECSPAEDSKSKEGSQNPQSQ
Protocol: . The receptors and ligands were incubated for 18–24 h at 0 °C and then the receptor–ligand complexes separated using hydroxyapatite (BioRad, Hercules, CA, USA). […]

MCF-7 cells = assay: MCF-7 cell proliferation, sulforhodamine B (SRB) assay; format: cell-based, human; settings: 0.001–1 µM, 48 h exposure, vs vehicle control
Protocol: The SRB assay has been used to study the effects of phytochemicals such as XN, DXN and 8-PN on cell proliferation of various cancer cell lines, including MCF-7 cells[91],[92]. SRB is a dye that binds to cellular proteins of adherent cells and the absorbance readings are a measure of the number of viable cells (cell mass) attached to the culture plate after incubation with the test compounds (samples) in comparison with vehicle control cells. The cell mass is then extrapolated as a measurement of cell viability and cell proliferation. Increased proliferation of MCF-7 cells is one of the measures of estrogenicity of phytochemicals. MCF-7 cells were plated at 10,000 cells/well in 96-well plates in DMEM medium containing 10% charcoal-stripped FBS and antibiotics. […] After incubation with the test compounds for 48 h, the cell culture medium was removed from each well of the 96-well plate and the cells were fixed for 1 h with 10% trichloroacetic acid. The cells on the plate were washed five with distilled water, air-dried, and then stained with SRB dye (0.4% w/v in 1% acetic acid). Excess dye was removed by washing the plate five times with 1% acetic acid. The plates were air-dried and the adsorbed dye was solubilized in 10 mM Tris buffer for 5 min on a shaker before reading the optical density (OD) at 565 nm. The percentage cell viability/proliferation was calculated as follows: (ODSample−ODZeroblank)/(ODControl−ODZeroblank)×100. Mean values and the coefficient of variation (CV) from six replicate wells were calculated and a one-way ANOVA was used to compare statistical differences between treated and control cells, with p < 0.05 as the level of significance.

[3] = tested on: progesterone receptor (PGR) expression in MCF-7 cells; assay: Progesterone receptor (PGR) gene expression in MCF-7 cells, real-time PCR; format: cell-based, human; settings: 20 h; estradiol 1 and 10 nM; 8-PN, XN, DXN, TXN 0.2, 1 and 5 μM; vs 0.1% ethanol
Protocol: MCF-7 cells (American Type Culture Collection, Manassas, VA, USA) were cultured in DMEM (Corning Life Sciences, Tewksbury, MA, USA) supplemented with 10% fetal bovine serum (Corning Life Sciences) and 100 μg/ml penicillin/streptomycin (Invitrogen, Carlsbad, CA, USA). For estrogen-free experiments, cells were seeded in phenol-free DMEM (Gibco/Life Technologies, Grand Island, NY, USA) plus 10% charcoal-dextran-treated FBS (Corning Life Sciences) at 5 × 10^5 cells/well of a 6-well plate. […] Total RNA was isolated using TRIzol (Invitrogen) and converted into cDNA using iScript (Bio-Rad, Hercules, CA, USA). Real-time PCR was performed in triplicate on a CFX-96 (Bio-Rad) using primer-probe assays (IDT Technologies, Coralville, IA, USA) and SsoAdvanced Universal Probes Supermix (Bio-Rad) to quantify progesterone receptor (PGR) and GAPDH levels. The ratio of PGR to GAPDH was calculated as 2^−ΔCt PGR/2^−ΔCt GAPDH. Data were analyzed using a one-way ANOVA (p < 0.05 was considered statistically significant) and a post-hoc Tukey’s multiple comparison test. Induction of the progesterone receptor in MCF-7 cells is one of the indices of estrogenicity of flavonoids such as 8-PN[94].

C2C12 cells = assay: Seahorse OCR and ECAR measurements (mitochondrial uncoupling); format: cell-based, mouse; settings: oligomycin 1 μM, C2C12 cells
Protocol: OCR and ECAR measurements were performed with a Seahorse XF 24 Analyzer (Agilent Technologies, Inc., Santa Clara, CA, USA). C2C12 cells were plated in culture medium at a density of 40,000 cells per well in a 24-well plate. The cells were then allowed to adhere for 24 h (37 °C, 5% CO2). Prior to the assay, the cells were washed with freshly prepared running medium consisting of Seahorse XF Assay medium (Agilent Technologies, Inc., Santa Clara, CA, USA), 10 mM glucose and 1 mM sodium pyruvate. The pH of the medium was adjusted to 7.4 with 1 M NaOH. The cells were then equilibrated for one hour at 37 °C without CO2. […] To overcome this problem, the test compounds were first dissolved in ethanol and the resulting solution was diluted 100-fold in treatment medium (9 parts XF media and 1 part 10% FBS media) which was added directly to cells. The treatment medium contained 1% FBS and after a further 10-fold dilution into the media in wells, only 0.1% FBS was present during OCR and ECAR measurements. The final concentrations in the wells were: 1 μM for oligomycin, and 5 μM for XN, DXN or TXN. The concentration of oligomycin and the cell density used were selected based on preliminary experiments. Ethanol was added to the control wells not to exceed a final concentration of 0.1% (vehicle control). OCR and ECAR were measured at 9-min intervals.
Seahorse data: to show a consistent baseline, OCR values (in pmol/min/mg protein) and ECAR values (in mpH/min/mg protein) for each value were divided, prior to statistical analysis, by the average of the four pre oligomycin treatment values (0, 8, 17, and 25 min) for the corresponding well and are shown as % pre oligomycin values. To account for repeated measures within wells over time, we utilized a repeated-measures-in-time design using ANOVA procedures in PROC MIXED (SAS). Fixed effects in the model were treatment (control, 5 μM XN, 5 μM DXN, and 5 μM TXN for the compound study), time (0, 8, 17, 25, 34, 43, 52, 60, 69, 78, 86, and 95 min), and their interaction. The random effect was the experiment (5 experiments for the compound study). To account for repeated measures within wells over time, a first order homogeneous variance-covariance matrix [AR(1)] was fitted for each well. Using the ESTIMATE statement, a priori contrasts were constructed by comparing the changes in compound treated cells from the last two time points prior to compound treatment (average 52 and 60 min) to the changes in control cells during the same time-period. This was carried out for each compound and dosage for 69, 78, 86, and 95 min separately and for all four time points combined. Results are shown in the text and the graphs as least squares means and their corresponding SEM (standard error of mean). […]

[4] = set-up: method as in PMID 17517853, PMID 20154334; settings: meta-analysis of 42 trials, p = 0.03; cited from earlier work

SMILES	RBA ERα (relative binding affinity) [1]	RBA ERβ (relative binding affinity) [2]	induction of PGR expression [3]	further results
CC(C)=CCc1c(O)cc(O)c2c1O[C@H](c1ccc(O)cc1)CC2=O [8-PN, 8-prenylnaringenin, reference compound]	0.686 ± 0.18	2.42 ± 0.62	statistically significant induction	fold greater affinity for ERα compared to XN, DXN, and TXN [1]: > 100 fold; fold greater affinity for ERβ compared to XN, DXN, and TXN [2]: > 100 fold; MCF-7 cell viability/proliferation at low concentrations (MCF-7 cells): induced cell proliferation
C[C@]12CC[C@@H]3c4ccc(O)cc4CC[C@H]3[C@@H]1CC[C@@H]2O [estradiol, 17β-estradiol, reference compound]			statistically significant induction	
COc1cc(O)c(CC=C(C)C)c2c1C(=O)CC(c1ccc(O)cc1)O2 (centres unmarked) [IX, Isoxanthohumol, reference compound]	0.0020 ± 0.0002	0.019 ± 0.004		
CC[C@H]1/C=C/C=C/C[C@@H](C)[C@H](O)[C@@](C)(O)C(=O)[C@@H](C)[C@H](O)[C@@H](C)C(=O)[C@@H](C)[C@H](O)[C@@H](C)/C=C/C(=O)O[C@@H]2[C@H](C)[C@H](CC1)O[C@]1(CC[C@H](C)[C@H](C[C@@H](C)O)O1)[C@H]2C [oligomycin, reference compound]				Increase in ECAR (C2C12 cells): 1.6 fold
CN(CCOc1ccc(CC2SC(=O)NC2=O)cc1)c1ccccn1 (centres unmarked) [rosiglitazone]				Increased risk of heart attack [4]: 43%
